Data reported in ChEMBL document CHEMBL1153282, “N-substituted 2'-(aminoaryl)benzothiazoles as kinase inhibitors: hit identification and scaffold hopping” (Bioorg Med Chem Lett, 2009).

How the values were obtained:
[1] = molecular target: Insulin-like growth factor 1 receptor (Homo sapiens, UniProt P08069); assay: Inhibition of IGF1R by virtual HTS assay
[2] = molecular target: Proto-oncogene tyrosine-protein kinase Src (Homo sapiens, UniProt P12931); assay: Inhibition of Src by virtual HTS assay
[3] = molecular target: Vascular endothelial growth factor receptor 2 (Homo sapiens, UniProt P35968); assay: Inhibition of VEGFR2 by virtual HTS assay
[4] = molecular target: Aurora kinase B (Homo sapiens, UniProt Q96GD4); assay: Inhibition of Aurora B by virtual HTS assay
[5] = molecular target: Insulin receptor (Homo sapiens, UniProt P06213); assay: Inhibition of insulin receptor by virtual HTS assay
[6] = molecular target: T1, Ephrin type-B receptor 4 (Homo sapiens, UniProt P54760); assay: Inhibition of EphB4 by virtual HTS assay
T1 sequence (P54760 whole entry): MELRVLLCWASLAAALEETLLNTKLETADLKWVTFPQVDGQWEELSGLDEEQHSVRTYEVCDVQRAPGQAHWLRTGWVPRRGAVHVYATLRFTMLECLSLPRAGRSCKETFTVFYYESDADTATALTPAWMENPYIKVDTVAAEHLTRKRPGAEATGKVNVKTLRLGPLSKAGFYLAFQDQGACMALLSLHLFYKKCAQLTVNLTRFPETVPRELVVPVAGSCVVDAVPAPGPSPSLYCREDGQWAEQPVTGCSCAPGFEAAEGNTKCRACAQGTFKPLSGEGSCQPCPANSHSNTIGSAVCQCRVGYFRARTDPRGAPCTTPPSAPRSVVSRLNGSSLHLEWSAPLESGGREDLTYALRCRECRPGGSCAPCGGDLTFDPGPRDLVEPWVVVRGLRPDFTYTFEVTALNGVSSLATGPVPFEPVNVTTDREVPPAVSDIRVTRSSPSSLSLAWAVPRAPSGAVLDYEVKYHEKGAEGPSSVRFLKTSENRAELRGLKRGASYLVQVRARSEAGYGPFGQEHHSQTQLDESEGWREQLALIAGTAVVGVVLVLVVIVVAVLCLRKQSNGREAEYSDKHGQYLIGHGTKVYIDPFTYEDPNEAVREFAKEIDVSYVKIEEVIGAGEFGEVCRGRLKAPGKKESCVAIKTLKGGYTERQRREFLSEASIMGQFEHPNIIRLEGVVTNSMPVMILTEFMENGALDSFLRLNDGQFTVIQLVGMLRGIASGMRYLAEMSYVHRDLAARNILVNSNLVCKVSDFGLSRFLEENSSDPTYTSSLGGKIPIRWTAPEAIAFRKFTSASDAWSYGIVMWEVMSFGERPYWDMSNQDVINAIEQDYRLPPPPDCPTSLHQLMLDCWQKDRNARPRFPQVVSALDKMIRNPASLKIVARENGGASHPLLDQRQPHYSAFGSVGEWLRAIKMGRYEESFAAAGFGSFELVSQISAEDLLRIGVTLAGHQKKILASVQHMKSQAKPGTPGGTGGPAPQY

[7] = molecular target: T2, Aurora kinase A (Homo sapiens, UniProt O14965); assay: Inhibition of Aurora A by virtual HTS assay
T2 sequence (O14965 whole entry): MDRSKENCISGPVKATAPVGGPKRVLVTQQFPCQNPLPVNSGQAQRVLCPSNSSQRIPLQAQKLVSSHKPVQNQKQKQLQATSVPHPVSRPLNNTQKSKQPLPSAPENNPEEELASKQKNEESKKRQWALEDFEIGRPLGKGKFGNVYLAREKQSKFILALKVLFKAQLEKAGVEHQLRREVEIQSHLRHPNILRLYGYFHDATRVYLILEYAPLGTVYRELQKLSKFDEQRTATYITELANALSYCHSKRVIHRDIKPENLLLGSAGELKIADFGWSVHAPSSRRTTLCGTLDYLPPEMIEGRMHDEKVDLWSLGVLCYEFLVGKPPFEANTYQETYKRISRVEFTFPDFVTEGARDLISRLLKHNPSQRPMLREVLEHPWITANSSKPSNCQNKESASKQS

[8] = molecular target: Epidermal growth factor receptor (Homo sapiens, UniProt P00533); assay: Inhibition of EGFR by virtual HTS assay
[9] = molecular target: Receptor tyrosine-protein kinase erbB-2 (Homo sapiens, UniProt P04626); assay: Inhibition of ErbB2 by virtual HTS assay
[10] = molecular target: Vascular endothelial growth factor receptor 3 (Homo sapiens, UniProt P35916)
Description: Inhibition of VEGFR3 by virtual HTS assay

[11] = molecular target: Angiopoietin-1 receptor (Homo sapiens, UniProt Q02763); assay: Inhibition of TIE2 by virtual HTS assay

Sequence of Aurora kinase B (Q96GD4 whole entry): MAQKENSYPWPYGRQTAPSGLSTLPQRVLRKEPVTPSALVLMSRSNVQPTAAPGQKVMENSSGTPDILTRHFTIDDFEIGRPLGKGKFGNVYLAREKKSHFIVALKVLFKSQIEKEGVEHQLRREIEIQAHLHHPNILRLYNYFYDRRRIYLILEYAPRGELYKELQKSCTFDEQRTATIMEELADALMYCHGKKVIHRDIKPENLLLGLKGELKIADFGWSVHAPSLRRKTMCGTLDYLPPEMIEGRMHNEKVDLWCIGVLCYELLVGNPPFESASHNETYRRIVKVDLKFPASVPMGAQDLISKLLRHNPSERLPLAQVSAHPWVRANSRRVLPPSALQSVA
Sequence of Epidermal growth factor receptor (P00533 whole entry): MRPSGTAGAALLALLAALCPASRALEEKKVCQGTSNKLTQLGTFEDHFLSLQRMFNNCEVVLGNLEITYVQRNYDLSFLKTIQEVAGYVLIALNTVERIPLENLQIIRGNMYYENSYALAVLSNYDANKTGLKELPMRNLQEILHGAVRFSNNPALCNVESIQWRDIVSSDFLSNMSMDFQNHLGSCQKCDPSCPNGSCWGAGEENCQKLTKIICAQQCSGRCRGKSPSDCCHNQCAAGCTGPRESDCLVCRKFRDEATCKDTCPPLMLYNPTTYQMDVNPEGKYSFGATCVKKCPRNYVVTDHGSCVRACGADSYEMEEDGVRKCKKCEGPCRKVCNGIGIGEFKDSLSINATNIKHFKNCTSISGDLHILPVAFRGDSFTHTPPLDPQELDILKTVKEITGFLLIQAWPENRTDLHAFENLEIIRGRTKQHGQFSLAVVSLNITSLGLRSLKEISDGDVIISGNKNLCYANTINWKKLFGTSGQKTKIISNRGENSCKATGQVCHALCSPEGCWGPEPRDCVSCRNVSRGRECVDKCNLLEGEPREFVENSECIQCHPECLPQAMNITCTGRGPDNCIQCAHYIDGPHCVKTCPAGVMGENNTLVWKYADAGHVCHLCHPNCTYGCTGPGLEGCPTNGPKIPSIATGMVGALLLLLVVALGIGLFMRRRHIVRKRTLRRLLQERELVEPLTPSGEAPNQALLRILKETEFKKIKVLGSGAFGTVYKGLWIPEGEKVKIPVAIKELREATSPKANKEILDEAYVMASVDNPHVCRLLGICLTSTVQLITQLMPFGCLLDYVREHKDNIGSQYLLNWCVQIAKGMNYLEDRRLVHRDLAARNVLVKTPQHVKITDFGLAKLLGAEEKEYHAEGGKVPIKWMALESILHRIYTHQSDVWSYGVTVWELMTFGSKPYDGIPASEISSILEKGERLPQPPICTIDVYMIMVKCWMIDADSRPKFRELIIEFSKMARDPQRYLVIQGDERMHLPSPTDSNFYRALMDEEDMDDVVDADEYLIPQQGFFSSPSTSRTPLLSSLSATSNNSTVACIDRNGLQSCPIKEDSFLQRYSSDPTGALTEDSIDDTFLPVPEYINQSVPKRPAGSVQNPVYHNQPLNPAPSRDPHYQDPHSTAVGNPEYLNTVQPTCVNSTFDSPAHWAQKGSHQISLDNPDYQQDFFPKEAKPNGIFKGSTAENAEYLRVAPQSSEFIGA
Sequence of Insulin receptor (P06213 28-758 limits assumed): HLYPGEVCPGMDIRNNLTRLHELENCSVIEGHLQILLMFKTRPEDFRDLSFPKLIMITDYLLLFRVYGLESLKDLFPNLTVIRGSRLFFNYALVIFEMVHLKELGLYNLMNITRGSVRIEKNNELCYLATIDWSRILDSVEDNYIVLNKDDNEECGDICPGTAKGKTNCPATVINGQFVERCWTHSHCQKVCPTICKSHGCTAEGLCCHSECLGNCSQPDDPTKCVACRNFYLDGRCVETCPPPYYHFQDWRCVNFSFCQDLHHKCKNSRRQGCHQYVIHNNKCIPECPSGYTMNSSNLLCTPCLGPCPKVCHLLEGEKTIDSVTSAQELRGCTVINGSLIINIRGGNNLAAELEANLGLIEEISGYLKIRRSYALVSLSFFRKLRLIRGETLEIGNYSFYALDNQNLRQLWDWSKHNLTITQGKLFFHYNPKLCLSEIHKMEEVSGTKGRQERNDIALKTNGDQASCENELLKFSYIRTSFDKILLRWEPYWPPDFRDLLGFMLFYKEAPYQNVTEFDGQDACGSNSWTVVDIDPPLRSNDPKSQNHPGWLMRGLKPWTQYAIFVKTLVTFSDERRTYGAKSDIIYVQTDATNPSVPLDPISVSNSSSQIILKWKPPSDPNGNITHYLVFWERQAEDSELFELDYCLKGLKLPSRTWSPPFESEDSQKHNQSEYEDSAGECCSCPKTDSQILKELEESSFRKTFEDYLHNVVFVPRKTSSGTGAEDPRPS
Sequence of Insulin receptor (P06213 763-1382 limits assumed): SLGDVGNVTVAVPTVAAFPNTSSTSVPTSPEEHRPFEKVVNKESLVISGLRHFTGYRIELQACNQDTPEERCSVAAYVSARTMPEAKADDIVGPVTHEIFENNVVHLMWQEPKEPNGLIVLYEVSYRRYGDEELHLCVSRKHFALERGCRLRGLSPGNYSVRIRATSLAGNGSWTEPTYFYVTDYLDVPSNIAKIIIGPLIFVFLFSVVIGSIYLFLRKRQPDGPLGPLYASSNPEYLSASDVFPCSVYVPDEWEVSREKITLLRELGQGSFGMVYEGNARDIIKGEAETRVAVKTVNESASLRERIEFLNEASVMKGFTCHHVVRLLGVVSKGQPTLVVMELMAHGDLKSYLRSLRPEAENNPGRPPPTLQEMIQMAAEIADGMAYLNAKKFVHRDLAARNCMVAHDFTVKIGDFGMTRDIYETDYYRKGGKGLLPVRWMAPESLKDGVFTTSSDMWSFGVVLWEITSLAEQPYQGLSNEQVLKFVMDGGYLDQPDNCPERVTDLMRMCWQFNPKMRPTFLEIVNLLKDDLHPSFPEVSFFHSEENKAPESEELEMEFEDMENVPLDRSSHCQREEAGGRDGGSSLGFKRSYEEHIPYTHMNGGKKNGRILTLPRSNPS
Sequence of Proto-oncogene tyrosine-protein kinase Src (P12931 2-536 limits assumed): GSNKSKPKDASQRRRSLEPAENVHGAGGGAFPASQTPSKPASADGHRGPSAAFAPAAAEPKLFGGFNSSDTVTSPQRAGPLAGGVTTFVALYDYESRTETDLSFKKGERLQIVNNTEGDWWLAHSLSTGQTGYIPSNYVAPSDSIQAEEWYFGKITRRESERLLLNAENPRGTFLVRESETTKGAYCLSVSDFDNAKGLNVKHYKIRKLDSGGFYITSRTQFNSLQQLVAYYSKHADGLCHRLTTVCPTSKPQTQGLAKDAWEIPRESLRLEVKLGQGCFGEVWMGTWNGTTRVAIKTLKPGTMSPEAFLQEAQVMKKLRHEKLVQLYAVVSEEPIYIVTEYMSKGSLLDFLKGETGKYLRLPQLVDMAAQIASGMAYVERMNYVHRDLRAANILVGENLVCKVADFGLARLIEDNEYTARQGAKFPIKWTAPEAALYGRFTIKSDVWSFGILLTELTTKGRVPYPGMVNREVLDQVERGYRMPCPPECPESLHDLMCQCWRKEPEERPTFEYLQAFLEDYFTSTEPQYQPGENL
Sequence of Vascular endothelial growth factor receptor 3 (P35916 whole entry): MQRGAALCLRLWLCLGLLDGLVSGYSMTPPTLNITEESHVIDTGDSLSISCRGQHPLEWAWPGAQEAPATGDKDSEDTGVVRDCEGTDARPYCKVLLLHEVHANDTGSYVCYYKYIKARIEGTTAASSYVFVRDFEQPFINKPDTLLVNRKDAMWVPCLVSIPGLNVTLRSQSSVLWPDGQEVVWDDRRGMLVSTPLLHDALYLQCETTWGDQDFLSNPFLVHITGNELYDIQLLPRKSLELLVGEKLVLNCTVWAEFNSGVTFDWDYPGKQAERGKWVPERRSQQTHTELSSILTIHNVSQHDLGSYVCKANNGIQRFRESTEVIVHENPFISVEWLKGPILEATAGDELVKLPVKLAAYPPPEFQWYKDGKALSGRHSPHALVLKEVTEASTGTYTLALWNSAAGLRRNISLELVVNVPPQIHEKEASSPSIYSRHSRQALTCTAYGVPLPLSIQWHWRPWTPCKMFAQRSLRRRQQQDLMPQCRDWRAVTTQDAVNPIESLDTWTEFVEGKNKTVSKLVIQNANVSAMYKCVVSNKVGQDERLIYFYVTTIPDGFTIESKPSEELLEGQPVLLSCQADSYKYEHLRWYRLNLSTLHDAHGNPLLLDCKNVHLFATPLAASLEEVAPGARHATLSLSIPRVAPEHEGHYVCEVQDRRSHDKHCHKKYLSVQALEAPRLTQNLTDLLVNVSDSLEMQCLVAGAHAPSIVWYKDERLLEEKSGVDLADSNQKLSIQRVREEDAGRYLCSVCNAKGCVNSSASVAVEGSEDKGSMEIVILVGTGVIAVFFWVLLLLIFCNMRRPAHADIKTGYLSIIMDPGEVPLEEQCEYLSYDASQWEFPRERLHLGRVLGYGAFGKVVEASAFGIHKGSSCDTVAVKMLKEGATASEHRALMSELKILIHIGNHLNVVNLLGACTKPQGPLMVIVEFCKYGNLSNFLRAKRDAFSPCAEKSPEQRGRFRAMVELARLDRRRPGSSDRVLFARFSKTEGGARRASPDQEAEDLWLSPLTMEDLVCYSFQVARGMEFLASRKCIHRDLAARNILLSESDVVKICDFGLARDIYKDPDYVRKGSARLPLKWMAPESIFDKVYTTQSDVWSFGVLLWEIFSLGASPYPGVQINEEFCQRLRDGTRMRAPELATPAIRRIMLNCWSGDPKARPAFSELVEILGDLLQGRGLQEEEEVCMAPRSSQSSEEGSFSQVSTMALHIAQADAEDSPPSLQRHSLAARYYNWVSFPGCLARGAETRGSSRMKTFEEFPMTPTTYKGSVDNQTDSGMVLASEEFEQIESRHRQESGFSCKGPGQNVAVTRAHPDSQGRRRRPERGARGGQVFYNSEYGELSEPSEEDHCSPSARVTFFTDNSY

Structure (SMILES)	IC50 [1] [µM]	IC50 [2] [µM]	IC50 [3] [µM]	IC50 [4] [µM]	IC50 [5] [µM]	IC50 [6] [µM]	IC50 [7] [µM]	IC50 [8] [µM]	IC50 [9] [µM]	IC50 [10] [µM]	IC50 [11] [µM]
c1cc(Nc2ncnc3nc[nH]c23)cc(-c2nc3ccccc3s2)c1	1.2	1.1	0.87	> 10	> 10	0.84	> 10	1.7	–	–	–
CN1CCN(c2ccnc(Nc3ccc(-c4nc5ccccc5s4)cc3)n2)CC1	–	–	> 10	> 10	> 10	–	0.84	> 10	> 10	5.2	–
COc1cc(Nc2ncnc3[nH]ccc23)ccc1-c1nc2ccccc2s1	3.6	> 10	> 10	> 10	> 10	–	> 10	0.72	1.6	> 10	8.6
CNc1cc(Nc2ccc(-c3nc4ccccc4s3)cc2)ccn1	–	–	> 10	> 10	> 10	–	> 10	> 10	> 10	6	–
CNC(=O)c1cc(Nc2ccc(-c3nc4ccccc4s3)cc2)ccn1	–	–	3.6	> 10	> 10	–	> 10	2	1.1	> 10	–
c1ccc2sc(-c3ccc(Nc4ncnc5ccsc45)cc3)nc2c1	> 10	> 10	> 10	0.72	> 10	–	2.8	> 10	> 10	> 10	> 10
COc1cc2ncnc(Nc3ccc(-c4nc5ccccc5s4)c(OC)c3)c2cc1OC	> 10	> 10	> 10	> 10	> 10	> 10	> 10	0.063	–	–	–
COc1cc2ncnc(Nc3ccc(-c4nc5ccccc5s4)cc3)c2cc1OC	> 10	> 10	6.8	0.135	> 10	> 10	0.35	1.5	–	–	–
Clc1cc(Nc2ncnc3ccsc23)ccc1-c1nc2ccccc2s1	> 10	> 10	> 10	> 10	> 10	–	> 10	> 10	> 10	> 10	4.4
Fc1cc(-c2nc3ccccc3s2)ccc1Nc1ncnc2ccsc12	> 10	> 10	> 10	0.29	> 10	–	4	> 10	> 10	> 10	4.1
c1cc(Nc2ncnc3[nH]ccc23)cc(-c2nc3ccccc3s2)c1	> 10	> 10	> 10	6.4	–	> 10	> 10	–	–	–	1.2
CNc1nc(Nc2ccc(-c3nc4ccccc4s3)cc2)c2cc(OC)c(OC)cc2n1	> 10	> 10	> 10	> 10	0.63	> 10	> 10	> 10	–	–	> 10
COc1cc2ncnc(Nc3ccc(-c4nc5ccccc5s4)cc3C)c2cc1OC	> 10	> 10	3.4	3.7	> 10	> 10	4.4	–	–	–	0.84
c1ccc2sc(-c3ccc(Nc4ncnc5nc[nH]c45)cc3)nc2c1	> 10	> 10	> 10	> 10	> 10	–	> 10	7.8	–	–	–
c1ccc2sc(-c3ccc(Nc4ncnc5[nH]ccc45)cc3)nc2c1	1.5	1.5	1.2	> 10	6.95	–	8	1.3	3.1	2.1	1.9

Now from value to compound:

IC50 [1] [µM]	IC50 [2] [µM]	IC50 [3] [µM]	IC50 [4] [µM]	IC50 [5] [µM]	IC50 [6] [µM]	IC50 [7] [µM]	IC50 [8] [µM]	IC50 [9] [µM]	IC50 [10] [µM]	IC50 [11] [µM]	Structure (SMILES)
–	–	> 10	7	> 10	–	0.37	> 10	–	–	–	Cc1cc(Nc2ccnc(Nc3ccc(-c4nc5ccccc5s4)cc3)n2)n[nH]1
–	–	> 10	3.1	> 10	–	0.32	> 10	> 10	> 10	–	COc1cc(Nc2nccc(Nc3cc(C)n[nH]3)n2)ccc1-c1nc2ccccc2s1
–	–	8.8	1.8	> 10	–	1.3	> 10	> 10	6.5	–	Cc1cc(Nc2cc(Nc3ccc(-c4nc5ccccc5s4)cc3)ccn2)[nH]n1
–	–	–	–	–	–	1.5	–	–	–	–	CNc1ccnc(Nc2ccc(-c3nc4ccccc4s3)cc2)n1
–	–	> 10	> 10	> 10	–	> 10	> 10	–	–	–	CN(C)c1ccnc(Nc2ccc(-c3nc4ccccc4s3)cc2)n1
4.4	6.4	10	> 10	> 10	–	> 10	–	> 10	> 10	8.7	COc1nc(Nc2ccc(-c3nc4ccccc4s3)cc2)c2cc[nH]c2n1
> 10	> 10	6.9	4.2	> 10	> 10	> 10	2.2	–	–	–	COc1cc2ncnc(Nc3ccc(-c4nc5ccccc5s4)c(O)c3)c2cc1OC
> 10	> 10	> 10	> 10	> 10	> 10	> 10	> 10	–	–	> 10	COc1cc(Nc2ccnc3cc(Cl)ccc23)ccc1-c1nc2ccccc2s1
2.9	2.1	0.96	> 10	> 10	–	> 10	5.1	> 10	7.7	2.5	COc1nc(Nc2ccc(-c3nc4ccccc4s3)c(OC)c2)c2cc[nH]c2n1
> 10	> 10	9.2	> 10	> 10	–	5.8	2.6	> 10	3.4	1.3	COc1cc(Nc2ncnc3nc[nH]c23)ccc1-c1nc2ccccc2s1
–	–	8.9	> 10	9.7	–	> 10	> 10	> 10	6.9	–	CNc1nccc(Nc2ccc(-c3nc4ccccc4s3)cc2)n1
> 10	> 10	> 10	> 10	> 10	–	> 10	> 10	> 10	> 10	> 10	COc1cc(Nc2ncnc3ccsc23)ccc1-c1nc2ccccc2s1
–	–	–	> 10	–	–	5.5	–	–	–	4.4	COc1cc2nc(Nc3cc(C)[nH]n3)nc(Nc3cccc(-c4nc5ccccc5s4)c3)c2cc1OC
